Test results: PubChem BioAssay (NCI)
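Exposure lasted 48 hours, with cells grown in 96-well plates and compounds tested at five concentrations. GI50 marks 50% less growth. TGI marks complete inhibition of growth.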

Experiments:
Assay in all cases: DTP human tumour cell line panel, 48 h
[1] = test system: SK-MEL-28 melanoma
[2] = test system: NCI-H522 lung
[3] = test system: HOP-92 NSCLC
[4] = test system: UACC-257 melanoma
[5] = test system: BT-549 breast
[6] = test system: SN12C renal
[7] = test system: HCT-116 colon
[8] = test system: TK-10 renal
[9] = test system: SNB-19 CNS
[10] = test system: U251 CNS
[11] = test system: HCT-15 colon
[12] = test system: NCI-H460 lung
[13] = test system: OVCAR-3 ovarian
[14] = test system: SK-MEL-5 melanoma
[15] = test system: RPMI-8226 leukemia
[16] = test system: MDA-MB-435
[17] = test system: KM12 colon
[18] = test system: MCF7 breast
[19] = test system: SF-268 CNS
[20] = test system: ACHN renal
[21] = test system: A549 NSCLC
[22] = test system: M14 melanoma
[23] = test system: T-47D breast
[24] = test system: MDA-MB-231 breast
[25] = test system: SW-620 colon
[26] = test system: NCI/ADR-RES ovarian
[27] = test system: SR leukemia
[28] = test system: HCC-2998 colon
[29] = test system: IGROV1 ovarian
[30] = test system: SK-MEL-2 melanoma
[31] = test system: OVCAR-4 ovarian
[32] = test system: COLO 205 colon
[33] = test system: PC-3 prostate
[34] = test system: MOLT-4 leukemia
[35] = test system: CCRF-CEM leukemia
[36] = test system: HOP-62 NSCLC
[37] = test system: SF-539 CNS
[38] = test system: A498 renal
[39] = test system: OVCAR-5 ovarian
[40] = test system: HL-60(TB) leukemia
[41] = test system: SF-295 CNS
[42] = test system: UO-31 renal
[43] = test system: CAKI-1 renal
[44] = test system: OVCAR-8 ovarian
[45] = test system: NCI-H226 lung
[46] = test system: HT29 colon
[47] = test system: 786-0 renal
[48] = test system: UACC-62 melanoma
[49] = test system: DU-145 prostate
[50] = test system: RXF 393 renal
[51] = test system: MALME-3M melanoma
[52] = test system: K-562 leukemia
[53] = test system: HS 578T breast
[54] = test system: SNB-75 CNS
[55] = test system: NCI-H23 lung
[56] = test system: LOX IMVI melanoma
[57] = test system: EKVX NSCLC
[58] = test system: SK-OV-3 ovarian

## CN[C@@H](C)C(=O)N[C@H](C(=O)N1CCC[C@H]1c1nc(C(=O)c2ccc(F)cc2)cs1)C1CCCCC1
[1]
  GI50: 16.6 µM
  TGI: 32 µM
[2]
  GI50: 3.45 µM
  TGI: 16.5 µM
[3]
  GI50: 2.8 µM
  TGI: 8.98 µM
[4]
  GI50: 15.1 µM
  TGI: 31.2 µM
[5]
  GI50: 11.7 µM
  TGI: 26.7 µM
[6]
  GI50: 39.2 µM
  TGI: > 100 µM
[7]
  GI50: 27 µM
  TGI: > 95.5 µM
[8]
  GI50: 22.3 µM
  TGI: 45.6 µM
[9]
  GI50: 53.9 µM
  TGI: > 100 µM
[10]
  GI50: 15.6 µM
  TGI: 33.3 µM
[11]
  GI50: 27.7 µM
  TGI: > 95.9 µM
[12]
  GI50: 27.8 µM
  TGI: > 72.8 µM
[13]
  GI50: 25.5 µM
  TGI: > 100 µM
[14]
  GI50: 13.6 µM
  TGI: 28.7 µM
[15]
  GI50: 16.6 µM
  TGI: 55.4 µM
[16]
  GI50: 16.3 µM
  TGI: 40.6 µM
[17]
  GI50: 21.8 µM
  TGI: 51.4 µM
[18]
  GI50: 16.1 µM
  TGI: 32.8 µM
[19]
  GI50: 46.9 µM
  TGI: > 100 µM
[20]
  GI50: 26.6 µM
  TGI: > 100 µM
[21]
  GI50: 35.2 µM
  TGI: > 100 µM
[22]
  GI50: 19.4 µM
  TGI: 38.4 µM
[23]
  GI50: 20.4 µM
  TGI: 77.8 µM
[24]
  GI50: 0.324 µM
  TGI: 20.6 µM
[25]
  GI50: 27.4 µM
  TGI: > 77.6 µM
[26]
  GI50: 21.2 µM
  TGI: > 66 µM
[27]
  GI50: 11.5 µM
  TGI: 38 µM
[28]
  GI50: 16 µM
  TGI: 31.2 µM
[29]
  GI50: 33.9 µM
  TGI: > 100 µM
[30]
  GI50: 2.93 µM
  TGI: 23.8 µM
[31]
  GI50: 0.51 µM
  TGI: 13.9 µM
[32]
  GI50: 16.5 µM
  TGI: 31.9 µM
[33]
  GI50: 24.1 µM
  TGI: > 73.6 µM
[34]
  GI50: 20 µM
  TGI: 57 µM
[35]
  GI50: 20.5 µM
  TGI: > 84.6 µM
[36]
  GI50: 20 µM
  TGI: > 65 µM
[37]
  GI50: 0.838 µM
  TGI: 17.6 µM
[38]
  GI50: 6.59 µM
  TGI: 25.4 µM
[39]
  GI50: 27 µM
  TGI: > 78.9 µM
[40]
  GI50: 3.69 µM
  TGI: 20 µM
[41]
  GI50: 19.4 µM
  TGI: 46.1 µM
[42]
  GI50: 36.1 µM
  TGI: > 94.3 µM
[43]
  GI50: 34.9 µM
  TGI: > 100 µM
[44]
  GI50: 11.1 µM
  TGI: 29.3 µM
[45]
  GI50: 31.2 µM
  TGI: > 100 µM
[46]
  GI50: 20.5 µM
  TGI: 42.8 µM
[47]
  GI50: 17.1 µM
  TGI: 34 µM
[48]
  GI50: 16.6 µM
  TGI: 35.2 µM
[49]
  GI50: 44.5 µM
  TGI: > 100 µM
[50]
  GI50: 1.94 µM
  TGI: 16.3 µM
[51]
  GI50: 4.08 µM
  TGI: 20 µM
[52]
  GI50: 17 µM
  TGI: 38.7 µM
[53]
  GI50: 19 µM
  TGI: 74.1 µM
[54]
  GI50: 4.31 µM
  TGI: 20.9 µM
[55]
  GI50: 11.2 µM
  TGI: > 62.1 µM
[56]
  GI50: 19 µM
  TGI: 37 µM

## COC(=O)CNC(=O)C(=O)c1c(O)c(O)c(C(C)C)c2cc(C)c(-c3c(C)cc4c(C(C)C)c(O)c(O)c(C(=O)C(=O)NCC(=O)OC)c4c3O)c(O)c12
[1]
  GI50: 2 µM
  TGI: 8.61 µM
[2]
  GI50: 1.32 µM
  TGI: 3.43 µM
[3]
  GI50: 1.38 µM
  TGI: 3.81 µM
[4]
  GI50: 7.89 µM
  TGI: 20.9 µM
[5]
  GI50: 2.65 µM
  TGI: 11.8 µM
[6]
  GI50: 1.97 µM
  TGI: 8.13 µM
[7]
  GI50: 1.79 µM
  TGI: 6.04 µM
[9]
  GI50: 1.53 µM
  TGI: 7.92 µM
[10]
  GI50: 1.53 µM
  TGI: 5.85 µM
[11]
  GI50: 1.49 µM
  TGI: 5.63 µM
[12]
  GI50: 1.52 µM
  TGI: 4.57 µM
[13]
  GI50: 1.61 µM
  TGI: 6.34 µM
[14]
  GI50: 4.29 µM
  TGI: 11.3 µM
[15]
  GI50: 2.72 µM
  TGI: > 50 µM
[16]
  GI50: 2.46 µM
  TGI: 9.3 µM
[17]
  GI50: 1.39 µM
  TGI: 7.29 µM
[18]
  GI50: 1.64 µM
  TGI: 6.11 µM
[19]
  GI50: 1.88 µM
  TGI: 8.75 µM
[20]
  GI50: 1.42 µM
  TGI: 5.54 µM
[21]
  GI50: 2.13 µM
  TGI: 8.01 µM
[22]
  GI50: 2.09 µM
  TGI: 9.9 µM
[23]
  GI50: 5.09 µM
  TGI: 40.9 µM
[24]
  GI50: 1.99 µM
  TGI: 9.64 µM
[25]
  GI50: 1.96 µM
  TGI: 6.94 µM
[26]
  GI50: 1.93 µM
  TGI: 9.28 µM
[27]
  GI50: 1.32 µM
  TGI: 7.76 µM
[28]
  GI50: 1.92 µM
  TGI: 7.1 µM
[29]
  GI50: 1.92 µM
  TGI: 8.94 µM
[30]
  GI50: 0.832 µM
  TGI: 2.13 µM
[31]
  GI50: 1.29 µM
  TGI: 4.58 µM
[32]
  GI50: 1.28 µM
  TGI: 3.16 µM
[33]
  GI50: 1.84 µM
  TGI: 7.26 µM
[34]
  GI50: 1.36 µM
  TGI: 16 µM
[35]
  GI50: 2.14 µM
  TGI: > 50 µM
[36]
  GI50: 2.41 µM
  TGI: 9.61 µM
[37]
  GI50: 1.77 µM
  TGI: 7.84 µM
[38]
  GI50: 2.6 µM
  TGI: 12.2 µM
[39]
  GI50: 1.56 µM
  TGI: 9.13 µM
[41]
  GI50: 1.46 µM
  TGI: 6.89 µM
[42]
  GI50: 1.43 µM
  TGI: 6.04 µM
[43]
  GI50: 3.74 µM
  TGI: 14.3 µM
[57]
  GI50: 1.2 µM
  TGI: 4.99 µM
[44]
  GI50: 2.05 µM
  TGI: 8.4 µM
[46]
  GI50: 1.58 µM
  TGI: 5.36 µM
[47]
  GI50: 2.35 µM
  TGI: 8.77 µM
[48]
  GI50: 2.23 µM
  TGI: 9.48 µM
[49]
  GI50: 1.99 µM
  TGI: 7.91 µM
[50]
  GI50: 1.85 µM
  TGI: 8.39 µM
[51]
  GI50: 2.23 µM
  TGI: 11 µM
[52]
  GI50: 1.88 µM
  TGI: > 50 µM
[53]
  GI50: 1.83 µM
  TGI: 8.58 µM
[54]
  GI50: 1.61 µM
  TGI: 8.5 µM
[58]
  GI50: 1.79 µM
  TGI: 6.89 µM
[55]
  GI50: 1.53 µM
  TGI: 6.37 µM
[56]
  GI50: 1.56 µM
  TGI: 6.28 µM
